Data on three compounds can be found in US11590137B2, “Ruxolitinib formulation for reduction of itch in atopic dermatitis” (Incyte Corporation, priority 2019, dated 2023).

Read-outs that look alike come from different tables or passages of the source.

Series [1] is described as follows: Solubility of ruxolitinib free base or 1:1 phosphate salt in potential solvents (HPLC). Type of series: physicochemical. The settings on record: for solubility at 24 h: thermodynamic from solid; for Solubility: listed as Free Base. As to the method:
First, in order to determine the solubility of ruxolitinib (free base) or its 1:1 phosphate salt, approximately 5 mL of a potential solvent was added to approximately 50 mg of the API or its salt at room temperature. The mixtures were suspended and rotated on a wheel. If the mixtures became clear solutions, more solid material was added. The suspensions were then suspended over 24 hours. The samples were filtered through 0.2 micron filters. The liquid portions were collected and diluted with 50/50 water methanol/water. The concentrations of the diluted samples were analyzed by HPLC. When the free base or salt was fairly insoluble, the results are approximate only.

The test system of series [2] is patients with moderate-to-severe AD. The note with it: subcutaneous, At Week 16, Solo1 and Solo2 trials, cited from earlier work; for Proportion of patient achieving a 4-point improvement in itch NRS score: itch NRS score of ≥4 at baseline.
Where [3] appears, read: 300 mg every other week, first printed value.
Setting [4] is: 300 mg every other week, second printed value.
The mark [5] stands for this setting: 300 mg every week, first printed value.
Where [6] appears, read: 300 mg every week, second printed value.

Take `N#CC[C@H](C1CCCC1)n1cc(-c2ncnc3[nH]ccc23)cn1` [ruxolitinib, (R)-3-(4-(7H-pyrrolo[2,3-d]pyrimidin-4-yl)-1H-pyrazol-1-yl)-3-cyclopentylpropanenitrile]: the solubility at 24 h in series [1] (0.1 M citric buffer, pH 4, aqueous buffer, pH 4, citric buffer, 0.1M) was determined as 1100 µg/mL; in series [1] (0.1 M citric buffer, pH 6, aqueous buffer, pH 6, citric buffer, 0.1M), 150 µg/mL; in series [1] (PEG 200, organic solvent or mixture, PEG 200), 17400 µg/mL; in series [1] (PEG 300, organic solvent or mixture, PEG 300), 10600 µg/mL; in series [1] (Transcutol, organic solvent or mixture) it was 7600 µg/mL; in series [1] (benzyl alcohol, organic solvent or mixture) it was 2300 µg/mL. In addition, the solubility at 24 h was determined as 5500 µg/mL in series [1] (ethanol, organic solvent or mixture); 8300 µg/mL in series [1] (glycerin, organic solvent or mixture); 450 µg/mL in series [1] (isopropanol, organic solvent or mixture); 300 µg/mL in series [1] (isosorbide dimethyl ether, organic solvent or mixture); 38600 µg/mL in series [1] (trolamine, organic solvent or mixture); 2000 µg/mL in series [1] (water, room temperature). The solubility at 24 h in series [1] (water/glycerin (50/50), aqueous with cosolvent or surfactant or cyclodextrin, Water/glyercin (50/50)) stood at 15900 µg/mL. Besides, the Solubility in series [1] (C12-15 alcohol benzoate) was found to be 0.15 mg/mL; in series [1] (Caprylic triglyceride) it was 0.15 mg/mL; in series [1] (Mineral oil), 0.08 mg/mL; in series [1] (Olelyl alcohol) it was 0.08 mg/mL; in series [1] (Water/PEG 200 (50/50)) it was 17.4 mg/mL.

On to “dupilumab: a systemic biologic agent; phase 3 trials in moderate-to-severe AD cited for comparison”, for which the “Proportion of patients achieving EASI-75” value is given as 44% in series [2] (setting [3]), 51% in series [2] (setting [4]), 48% in series [2] (setting [5]) and 52% in series [2] (setting [6]). Moreover, the “Proportion of patients achieving IGA-TS” value is 36% in series [2] (setting [3]), 38% in series [2] (setting [4]), 36% in series [2] (setting [5]) and 37% in series [2] (setting [6]). The “Proportion of patient achieving a 4-point improvement in itch NRS score” value in series [2] (setting [3]) is 36%; in series [2] (setting [4]), 41%; in series [2] (setting [5]) it was 39%; in series [2] (setting [6]), 40%.

Take `N#CC[C@H](C1CCCC1)n1cc(-c2ncnc3[nH]ccc23)cn1` [ruxolitinib phosphate]: the solubility at 24 h in series [1] (C12-15 alcohol benzoate, oil or lipid) is less than 200 µg/mL; in series [1] (caprylic triglyceride, oil or lipid) it was less than 200 µg/mL; in series [1] (dimethicone, oil or lipid), less than 200 µg/mL; in series [1] (isopropyl myristate, oil or lipid), less than 100 µg/mL; in series [1] (mineral oil, oil or lipid), less than 100 µg/mL; in series [1] (oleyl alcohol, oil or lipid, Olelyl alcohol), 100 µg/mL. The solubility at 24 h in series [1] (propylene glycol, organic solvent or mixture) came to 24000 µg/mL; in series [1] (water/PEG 200 (50/50), aqueous with cosolvent or surfactant or cyclodextrin), 23000 µg/mL; in series [1] (water/glycerin/trolamine (40/40/20), aqueous with cosolvent or surfactant or cyclodextrin) it was 18000 µg/mL.
